Results as given in patent US11034698B2, “Pyrazolo[ 1,5a]pyrimidine derivatives as IRAK4 modulators” (priority 2017, dated 2021).

Target: human IRAK4 (Homo sapiens (Human), UniProt Q9NWZ3)
Test: IRAK4 kinase inhibition, Transcreener fluorescence polarization (ADP)
Type: biochemical
Conditions: recombinant full-length His6-IRAK4 1.25 nM; 125 uM ATP; 125 uM peptide; 90 min; ATP Km 642 uM; read-out: IRAK4 Ki
Experimental: Compounds were assayed for inhibition of human IRAK4 and IRAK1 catalytic activity using recombinant enzyme produced from insect cells. Full-length IRAK4 protein, carrying an N-terminal His6-Tag, was obtained from Life Technologies (Carlsbad, Calif., USA). The IRAK1 construct was produced internally and was comprised of IRAK1 residues Arg194 to Ser712, preceded by an NH2-terminal His6 tag and the coding sequence for glutathione-S-transferase.
Kinase activities were assayed using the Transcreener-Fluorecescence polarization platform (BelBrook Labs, Madison, Wis., USA) that measures amounts of the reaction product, ADP.

Chain of human IRAK4 (Q9NWZ3 whole entry): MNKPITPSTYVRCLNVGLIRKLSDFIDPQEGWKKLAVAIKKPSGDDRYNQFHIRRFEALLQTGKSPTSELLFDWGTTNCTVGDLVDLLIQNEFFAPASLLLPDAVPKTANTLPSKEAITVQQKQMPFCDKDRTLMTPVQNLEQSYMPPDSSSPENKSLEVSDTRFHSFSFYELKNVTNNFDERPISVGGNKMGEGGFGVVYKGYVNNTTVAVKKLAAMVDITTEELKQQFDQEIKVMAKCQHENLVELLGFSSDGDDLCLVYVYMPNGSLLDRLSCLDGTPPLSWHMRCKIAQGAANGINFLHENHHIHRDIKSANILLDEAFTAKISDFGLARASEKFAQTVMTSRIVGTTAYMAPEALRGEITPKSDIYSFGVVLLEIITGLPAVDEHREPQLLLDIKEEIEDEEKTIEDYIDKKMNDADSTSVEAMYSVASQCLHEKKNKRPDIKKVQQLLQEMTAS

Row | Compound | Ki [nM]
1 | CN1C[C@H](COc2cc3c(cc2NC(=O)c2cnn4cccnc24)CC(C)(C)O3)CC1=O [Example 24, (R)-N-(2,2-Dimethyl-6-((1-methyl-5-oxopyrrolidin-3-yl)methoxy)-2,3-dihydrobenzofuran-5-yl)pyrazolo[1,5-a]pyrimidine-3-carboxamide] | 160
2 | CC1(C)Cc2cc(NC(=O)c3cnn4cccnc34)c(OC[C@@H]3Cc4ccccc4[C@H]3N)cc2O1 [Example 26, N-[6-[[(1S,2R)-1-Aminoindan-2-yl]methoxy]-2,2-dimethyl-3H-benzofuran-5-yl]pyrazolo[1,5-a]pyrimidine-3-carboxamide] | 280
3 | CC1(C)Cc2cc(NC(=O)c3cnn4cccnc34)c(OC[C@H]3C[C@@H]4NCCO[C@H]4C3)cc2O1 [Example 30, N-(2,2-Dimethyl-6-(((4aS,6S,7aS)-octahydrocyclopenta[b][1,4]oxazin-6-yl)methoxy)-2,3-dihydrobenzofuran-5-yl)pyrazolo[1,5-a]pyrimidine-3-carboxamide] | 66
4 | COc1cc2c(cc1NC(=O)c1cnn3ccc(C4CCNC4=O)nc13)CC(C)(C)O2 (centres unmarked) [Example 35, N-(6-Methoxy-2,2-dimethyl-2,3-dihydrobenzofuran-5-yl)-5-(2-oxopyrrolidin-3-yl)pyrazolo[1,5-a]pyrimidine-3-carboxamide] | 100
5 | COc1cc2c(cc1NC(=O)c1cnn3ccc(N4C[C@@H](N)CC(F)(F)C4)nc13)CC(C)(C)O2 [Example 36, (S)-5-(5-Amino-3,3-difluoropiperidin-1-yl)-N-(6-methoxy-2,2-dimethyl-2,3-dihydrobenzofuran-5-yl)pyrazolo[1,5-a]pyrimidine-3-carboxamide] | 14
6 | COc1cc2c(cc1NC(=O)c1cnn3ccc(N(C)C4CC4)nc13)CC(C)(C)O2 [Example 38, 5-(Cyclopropyl(methyl)amino)-N-(6-methoxy-2,2-dimethyl-2,3-dihvdrobenzofuran-5-yl)pyrazolo[1,5-a]pyrimidine-3-carboxamide] | 180
7 | COc1cc2c(cc1NC(=O)c1cnn3ccc(N4CCC[C@@H](N)C4)nc13)CC(C)(C)O2 [Example 39, (R)-5-(3-Aminopiperidin-1-yl)-N-(6-methoxy-2,2-dimethyl-2,3-dihydrobenzofuran-5-yl)pyrazolo[1,5-a]pyrimidine-3-carboxamide] | 4.1
8 | COc1cc2c(cc1NC(=O)c1cnn3ccc(N[C@@H]4CCCNC4)nc13)CC(C)(C)O2 [Example 40, (R)-N-(6-Methoxy-2,2-dimethyl-2,3-dihydrobenzofuran-5-yl)-5-(piperidin-3-ylamino)pyrazolo[1,5-a]pyrimidine-3-carboxamide] | 0.87
9 | COc1cc2c(cc1NC(=O)c1cnn3ccc(N)nc13)CC(C)(C)O2 [Example 41, 5-amino-N-(6-Methoxy-2,2-dimethyl-2,3-dihydrobenzofuran-5-yl)pyrazolo[1,5-a]pyrimidine-3-carboxamide] | 4.6
10 | COc1cc2c(cc1NC(=O)c1cnn3ccc(N4CCNCC4)nc13)CC(C)(C)O2 [Example 42, N-(6-Methoxy-2,2-dimethyl-2,3-dihydrobenzofuran-5-yl)-5-(piperazin-1-yl)pyrazolo[1,5-a]pyrimidine-3-carboxamide] | 22
11 | COc1cc2c(cc1NC(=O)c1cnn3ccc(NCCN)nc13)CC(C)(C)O2 [Example 43, 5-((2-Aminoethyl)amino)-N-(6-methoxy-2,2-dimethyl-2,3-dihydrobenzofuran-5-yl)pyrazolo[1,5-a]pyrimidine-3-carboxamide] | 3.2
12 | COc1cc2c(cc1NC(=O)c1cnn3ccc(N(C)C)nc13)CC(C)(C)O2 [Example 44, 5-(Dimethylamino)-N-(6-methoxy-2,2-dimethyl-2,3-dihydrobenzofuran-5-yl)pyrazolo[1,5-a]pyrimidine-3-carboxamide] | 220
13 | CC1(C)Cc2cc3c(cc2O1)N1CCN(CCNc2ccn4ncc(c4n2)C(=O)N3)CC1 [Example 45, (5^3E,5^4E)-2^2,2^2-Dimethyl-2^2,2^3-dihydro-3,6-diaza-5(3,5)-pyrazolo[1,5-a]pyrimidina-1(1,4)-piperazina-2(6,5)-benzofuranacyclooctaphan-4-one] | 120
14 | O=C1CCc2cc(NC(=O)c3cnn4cccnc34)c(N3CCOCC3)cc2N1 [Example 46, N-(7-Morpholino-2-oxo-1,2,3,4-tetrahydroquinolin-6-yl)pyrazolo[1,5-a]pyrimidine-3-carboxamide] | 42
15 | O=C(Nc1cc2c(cc1N1CCOCC1)N(CCO)C(=O)CC2)c1cnn2cccnc12 [Example 47, N-(1-(2-Hydroxyethyl)-7-morpholino-2-oxo-1,2,3,4-tetrahydroquinolin-6-yl)pyrazolo[1,5-a]pyrimidine-3-carboxamide] | 53
16 | O=C(Nc1cc2c(cc1N1CCOCC1)N(CCCO)C(=O)CC2)c1cnn2cccnc12 [Example 48, N-(1-(3-Hydroxypropyl)-7-morpholino-2-oxo-1,2,3,4-tetrahydroquinolin-6-yl)pyrazolo[1,5-a]pyrimidine-3-carboxamide] | 240
17 | C[C@@]1(CCC#N)COc2cc(N3CCOCC3)c(NC(=O)c3cnn4cccnc34)cc2C1 [Example 58, (S)—N-(3-(2-Cyanoethyl)-3-methyl-7-morpholinochroman-6-yl)pyrazolo[1,5-a]pyrimidine-3-carboxamide] | 19
18 | Cn1cc(COc2cc3c(cc2NC(=O)c2cnn4cccnc24)CN(C[C@@H](F)C(C)(C)O)C3=O)cn1 [Example 60, (R)—N-(2-(2-Fluoro-3-hydroxy-3-methylbutyl)-6-((1-methyl-1H-pyrazol-4-yl)methoxy)-1-oxoisoindolin-5-yl)pyrazolo[1,5-a]pyrimidine-3-carboxamide] | 1.1
19 | CC(C)(O)[C@H](F)CN1Cc2cc(NC(=O)c3cnn4cccnc34)c(O[C@H]3C[C@@H](F)C3)cc2C1=O [Example 61, N-[6-(3-Fluorocyclobutoxy)-2-[(2R)-2-fluoro-3-hydroxy-3-methyl-butyl]-1-oxo-isoindolin-5-yl]pyrazolo[1,5-a]pyrimidine-3-carboxamide] | 0.28
20 | CC(C)(O)[C@H](F)CN1Cc2cc(NC(=O)c3cnn4cccnc34)c(O[C@H]3CCNC3)cc2C1=O [Example 62, N-[2-[(2R)-2-Fluoro-3-hydroxy-3-methyl-butyl]-1-oxo-6-[(3S)-pyrrolidin-3-yl]oxy-isoindolin-5-yl]pyrazolo[1,5-a]pyrimidine-3-carboxamide] | 9.2
21 | CC(C)(O)[C@H](F)CN1Cc2cc(NC(=O)c3cnn4cccnc34)c(O[C@H]3C[C@@H](Cl)C3)cc2C1=O [Example 64, N-[6-(3-Chlorocyclobutoxy)-2-[(2R)-2-fluoro-3-hydroxy-3-methyl-butyl]-1-oxo-isoindolin-5-yl]pyrazolo[1,5-a]pyrimidine-3-carboxamide] | 0.51
22 | CC(C)(O)[C@H](F)CN1Cc2cc(NC(=O)c3cnn4cccnc34)c(OCC(F)F)cc2C1=O [Example 65, (R)-N-(6-(2,2-Difluoroethoxy)-2-(2-fluoro-3-hydroxy-3-methylbutyl)-1-oxoisoindolin-5-yl)pyrazolo[1,5-a]pyrimidine-3-carboxamide] | 0.26
23 | CC(C)(O)[C@H](F)CN1Cc2cc(NC(=O)c3cnn4cccnc34)c(O[C@H]3CC[C@@H](O)C3)cc2C1=O [Example 66, N-(2-((R)-2-Fluoro-3-hydroxy-3-methylbutyl)-6-(((1S,3R)-3-hydroxycyclopentyl)oxy)-1-oxoisoindolin-5-yl)pyrazolo[1,5-a]pyrimidine-3-carboxamide] | 0.67
